A word on the IC50: it is the concentration needed to halve the response being measured. As usually defined, the IC90 is the point of the concentration-response curve where the effect stands at 90%. Read a low IC90 as an effect from little substance.

In PubChem BioAssay AID449762 (Southern Research Specialized Biocontainment Screening …, 2010) one finds IC50 and IC90 data, which are given here for 12 molecules.

Results filed as inconclusive are left out.

In this test the test system is M. tuberculosis H37Rv growth inhibition, 7H9 media. The test can be described thus: M. tuberculosis growth inhibition, HTS (AID 449762).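 As to all read-outs here: bacterial growth assessed after seven days of incubation.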 Particulars: for IC90: measured here: IC90 growth inhibition.

In the case of `COc1cccc(/C=N/Nc2nc(Nc3ccccc3)nc(-n3nc(C)cc3C)n2)c1O`, the IC50 was less than 0.2 µM and the IC90 was less than 0.2 µM.

For `COC(=O)CSc1ncnc2c1cnn2-c1ccc(C)cc1C`, the IC50 was 3.82 µM and the IC90 was 7.95 µM.

Take `CC1(CCc2ccccc2)NC(=S)N(c2ccc(Cl)cc2)N1` (stereo not drawn): the IC90 is greater than 100 µM.

`Cc1ccc(-c2ccc(/C=N/c3ncn[nH]3)o2)cc1Cl`: the IC50 is 98.8 µM and the IC90 is greater than 100 µM.

For the molecule `Nc1ccc(S(=O)(=O)Nc2cnc3ccccc3n2)cc1`, the IC50 was 26.4 µM and the IC90 is 52 µM.

Take `Cc1ccc(NCc2ccc(O)c3ncccc23)cc1C`: the IC50 is 56 µM and the IC90 was greater than 100 µM.

For the molecule `N#C/C(=C/c1ccc(Sc2nc3ccccc3[nH]2)o1)c1cccc(Br)c1`, the IC50 is 77.6 µM and the 90% effect concentration (IC90) is greater than 100 µM.

On to `COc1ccccc1N1CCN(c2ccc(-c3ccccc3)nn2)CC1`, for which the IC50 is 84.4 µM and the IC90 was greater than 100 µM.

As for `C[n+]1c(-c2ccccc2)cc(CCCCc2cc(-c3ccccc3)[n+](C)c(-c3ccccc3)c2)cc1-c1ccccc1`, the IC50 was 17.3 µM and the IC90 came out at 21.7 µM.

For `O=C(c1cccc(-c2ccco2)c1)N1CCCC(N2CCN(c3ccc(F)cc3)CC2)C1` (stereo not drawn), the IC50 was 52.5 µM and the IC90 is 78.8 µM.

For the molecule `COc1cc2[nH]c(Cl)c([N+](=O)[O-])c2cc1OC`, the IC50 is 99.6 µM and the IC90 is greater than 100 µM.

Regarding `COc1ccc(C2CC(=O)c3cnc(Nc4cc(C)cc(C)c4)nc3C2)cc1` (stereo not drawn), the IC50 was 12.3 µM and the IC90 was 22.4 µM.
